Results: ChEMBL document CHEMBL2331252, “Facile one-pot synthesis of novel dispirooxindole-pyrrolidine derivatives and their antimicrobial and anticancer activity against A549 human lung adenocarcinoma cancer cell line” (Bioorg Med Chem Lett, 2013)
≈ marks a conversion by molar mass, not a printed value. Calls of active or inactive are those of the source. No cut-off for these calls is given here.

What was measured:
Micrococcus luteus [1] = test: Antibacterial activity against Micrococcus luteus MTCC 106 at 1 mg/disc after 24 hrs by disc diffusion method; type: functional
Staphylococcus aureus [2] = test: Antibacterial activity against Staphylococcus aureus MTCC 96 after 24 hrs; type: functional; conditions: MTCC 96, 24 h
Klebsiella pneumoniae [3] = test: Antibacterial activity against Klebsiella pneumoniae MTCC 109 at 1 mg/disc after 24 hrs by disc diffusion method; type: functional
Staphylococcus aureus [4] = test: Antibacterial activity against methicillin-resistant Staphylococcus aureus after 24 hrs; type: functional
Salmonella typhimurium [5] = test: Antibacterial activity against Salmonella typhimurium MTCC 1251 after 24 hrs; type: functional, Salmonella enterica subsp. enterica serovar Typhimurium; conditions: Salmonella enterica, MTCC 1251, 24 h
Klebsiella aerogenes [6] = test: Antibacterial activity against Enterobacter aerogenes MTCC 111 at 1 mg/disc after 24 hrs by disc diffusion method; type: functional
Salmonella typhimurium [7] = test: Antibacterial activity against Salmonella typhimurium MTCC 1251 at 1 mg/disc after 24 hrs by disc diffusion method; type: functional, Salmonella enterica subsp. enterica serovar Typhimurium
A549 [8] = test: Cytotoxicity against human A549 cells assessed as cell death at 200 ug/ml by MTT assay; type: functional
A549 [9] = test: Cytotoxicity against human A549 cells assessed as cell death at 100 ug/ml by MTT assay; type: functional
[10] = Antifungal activity against Malassezia pachydermatis at 1 mg/disc after 48 hrs by disc diffusion method; type: functional
Micrococcus luteus [11] = test: Antibacterial activity against Micrococcus luteus MTCC 106 after 24 hrs; type: functional
Proteus vulgaris [12] = test: Antibacterial activity against Proteus vulgaris MTCC 1771 after 24 hrs; type: functional; conditions: MTCC 1771, 24 h
A549 [13] = test: Cytotoxicity against human A549 cells assessed as cell death by MTT assay; type: functional, cell-based
Shigella flexneri [14] = test: Antibacterial activity against Shigella flexneri MTCC 1457 at 1 mg/disc after 24 hrs by disc diffusion method; type: functional
Staphylococcus aureus [15] = test: Antibacterial activity against Staphylococcus aureus MTCC 96 at 1 mg/disc after 24 hrs by disc diffusion method; type: functional
A549 [16] = test: Cytotoxicity against human A549 cells assessed as cell death at 50 ug/ml by MTT assay; type: functional
Klebsiella aerogenes [17] = test: Antibacterial activity against Enterobacter aerogenes MTCC 111 after 24 hrs; type: functional
Candida albicans [18] = test: Antifungal activity against Candida albicans MTCC 227 after 48 to 72 hrs; type: functional
Candida albicans [19] = test: Antifungal activity against Candida albicans MTCC 227 at 1 mg/disc after 48 hrs by disc diffusion method; type: functional
Staphylococcus aureus [20] = test: Antibacterial activity against methicillin-resistant Staphylococcus aureus at 1 mg/disc after 24 hrs by disc diffusion method; type: functional
Klebsiella pneumoniae [21] = test: Antibacterial activity against Klebsiella pneumoniae MTCC 109 after 24 hrs; type: functional; conditions: MTCC 109, 24 h
Proteus vulgaris [22] = test: Antibacterial activity against Proteus vulgaris MTCC 1771 at 1 mg/disc after 24 hrs by disc diffusion method; type: functional
Shigella flexneri [23] = test: Antibacterial activity against Shigella flexneri MTCC 1457 after 24 hrs; type: functional; conditions: MTCC 1457, 24 h

C#CCN1C(=O)[C@@]2(c3ccccc31)N(C)C[C@](C#N)(C(=O)c1c[nH]c3ccccc13)[C@]21C(=O)Nc2ccccc21
inhibition (Micrococcus luteus [1]): inactive | MIC (Staphylococcus aureus [2]): 125 µg/mL (≈ 238 µM) | inhibition zone (IZ) (Klebsiella pneumoniae [3]): 14 mm | MIC (Staphylococcus aureus [4]): 500 µg/mL (≈ 951 µM) | MIC (Salmonella typhimurium [5]): 500 µg/mL (≈ 951 µM) | inhibition (Klebsiella aerogenes [6]): inactive | inhibition zone (IZ) (Salmonella typhimurium [7]): 9 mm | Activity (A549 [8]): 67.67% | Activity (A549 [9]): 59.31% | inhibition [10]: inactive | MIC (Micrococcus luteus [11]): inactive | MIC (Proteus vulgaris [12]): 500 µg/mL (≈ 951 µM) | IC50 (A549 [13]): 50 µg/mL (≈ 95.1 µM) | inhibition zone (IZ) (Shigella flexneri [14]): 8 mm | inhibition zone (IZ) (Staphylococcus aureus [15]): 12 mm | Activity (A549 [16]): 55.22% | MIC (Klebsiella aerogenes [17]): inactive | MIC (Candida albicans [18]): inactive | inhibition (Candida albicans [19]): inactive | inhibition zone (IZ) (Staphylococcus aureus [20]): 8 mm | MIC (Klebsiella pneumoniae [21]): 62.5 µg/mL (≈ 119 µM) | inhibition zone (IZ) (Proteus vulgaris [22]): 10 mm | MIC (Shigella flexneri [23]): 500 µg/mL (≈ 951 µM)
